Results taken from the OligoGym collection.
After the bases stand the sugars from the 5' end (letter, count) and the backbone: PS all phosphorothioate, else s phosphorothioate and o phosphodiester by linkage. Methylation of C is not given here. e = 2'-O-(2-methoxyethyl) (MOE); k = constrained ethyl (cEt); d = 2'-deoxy (DNA); m = 2'-O-methyl

Target: HSD17B13
Settings: ASO, HepaRG

In the case of AGTCTTAAACCTTCCC (sugars k3 d10 k3, PS), the target mRNA inhibition (0.02 µM) is reported as 0%, the target mRNA inhibition (0.078 µM) is reported as 0% and the target mRNA inhibition (0.313 µM) is reported as 21%. The target mRNA inhibition (1 µM) was 77%, the target mRNA inhibition (1.25 µM) was 65% and the target mRNA inhibition (5 µM) was 85%.
With “AGTCUTAAACCTTCCC (sugars k3 d1 m1 d8 k3, PS)” the target mRNA inhibition (1 µM) was 52%.
Work on “AGTGCATCTTAAGATA (sugars kkdddddddddkekek, PS)” yielded a target mRNA inhibition (1 µM) of 27%.
“AGTTAGTATAGTTATC (sugars k3 d1 m1 d8 k3, PS)” showed a target mRNA inhibition (1 µM) of 42%.
AGTTATTCTCTTGACA (sugars k3 d10 k3, PS) was tested, and the target mRNA inhibition (1 µM) was 48%.
For AGTTCTGATGTCAGAC (sugars k3 d10 k3, PS), the target mRNA inhibition (1 µM) was 40%.
“AGTTGCACCGTTTTGG (sugars k3 d1 m1 d8 k3, PS)” was tested, and the target mRNA inhibition (1 µM) was 38%.
“AGTTGCACCGTTTTGG (sugars k3 d9 k3 e1, PS)” was tested, and the target mRNA inhibition (1 µM) was 43%.
AGTTGCACCGTTTTGG (sugars k3 d10 k3, PS) gave a target mRNA inhibition (1 µM) of 55%.
In the case of “AGTTGCACCGTTTTGG (sugars kkdddddddddkekek, PS)”, the target mRNA inhibition (1 µM) is reported as 41%.
ATAAAAATTGGCCTCC (sugars k3 d10 k3, PS) was tested, and the target mRNA inhibition (1 µM) was 41%.
ATAAACATAGGCTTAG (sugars k3 d10 k3, PS) was tested, and the target mRNA inhibition (1 µM) was 41%.
“ATAACTACAAGAGGTT (sugars k3 d1 m1 d8 k3, PS)” gave a target mRNA inhibition (1 µM) of 61%.
In the case of “ATAACTACAAGAGGTT (sugars kkdddddddddkekek, PS)”, the target mRNA inhibition (1 µM) is reported as 46%.
ATAACTACATGACCTG (sugars k3 d10 k3, PS) was tested, and the target mRNA inhibition (1 µM) was 29%.
Sequence ATAAGAAGAGAGCTCA (sugars k3 d10 k3, PS) has a target mRNA inhibition (1 µM) of 14%.
With ATAAGTAGATGGTAAG (sugars k3 d10 k3, PS) the target mRNA inhibition (1 µM) was 58%.
ATAATAGCTCTATTGG (sugars k3 d10 k3, PS) gave a target mRNA inhibition (1 µM) of 46%.
With ATACATCAACTCCTCT (sugars k3 d10 k3, PS) the target mRNA inhibition (0.02 µM) was 0%, the target mRNA inhibition (0.078 µM) was 9% and the target mRNA inhibition (0.313 µM) was 26%. It also gave a target mRNA inhibition (1 µM) of 64%, a target mRNA inhibition (1.25 µM) of 63% and a target mRNA inhibition (5 µM) of 83%.
With “ATACATTAGCAAGCTA (sugars k3 d9 k3 e1, PS)” the target mRNA inhibition (1 µM) was 48%.
Sequence “ATACATTAGCAAGCTA (sugars kkdddddddddkekek, PS)” has a target mRNA inhibition (1 µM) of 22%.
ATACTATTCTCCAACT (sugars k3 d10 k3, PS) showed a target mRNA inhibition (1 µM) of 25%.
“ATAGAGTCGGTCACCT (sugars k3 d1 m1 d8 k3, PS)” showed a target mRNA inhibition (1 µM) of 50%.
For “ATAGAGTCGGTCACCT (sugars k3 d9 k3 e1, PS)”, the target mRNA inhibition (1 µM) was 67%.
With ATAGGACATGGAGACA (sugars k3 d10 k3, PS) the target mRNA inhibition (0.02 µM) was 14%, the target mRNA inhibition (0.078 µM) was 18% and the target mRNA inhibition (0.313 µM) was 48%. For the same sequence, the target mRNA inhibition (1 µM) was 82%, the target mRNA inhibition (1.25 µM) was 74% and the target mRNA inhibition (5 µM) was 79%.
ATAGGCAGTAAAGTGC (sugars k3 d10 k3, PS) gave a target mRNA inhibition (1 µM) of 56%.
ATAGGGAGACCATGCT (sugars k3 d10 k3, PS) was tested, and the target mRNA inhibition (1 µM) was 64%.
In the case of ATAGTAATTGCTATAG (sugars k3 d10 k3, PS), the target mRNA inhibition (1 µM) is reported as 36%.
“ATAGTCCATGCAAAAG (sugars kkdddddddddkekek, PS)” was tested, and the target mRNA inhibition (1 µM) was 31%.
For ATATACAGACTAAGGG (sugars k3 d10 k3, PS), the target mRNA inhibition (1 µM) was 24%.
ATATAGCCCTTTCCCC (sugars k3 d10 k3, PS) gave a target mRNA inhibition (1 µM) of 26%.
Sequence ATATCAATGCCTTAGC (sugars k3 d10 k3, PS) has a target mRNA inhibition (1 µM) of 32%.
ATATGTCCAGGTTGAG (sugars k3 d10 k3, PS) showed a target mRNA inhibition (1 µM) of 61%.
For “ATATUCTGTGGCATGG (sugars k3 d1 m1 d8 k3, PS)”, the target mRNA inhibition (1 µM) was 63%.
Sequence ATCAATTTATCATACC (sugars k3 d10 k3, PS) has a target mRNA inhibition (1 µM) of 11%.
ATCAGACTTCTTACGA (sugars k3 d10 k3, PS) showed a target mRNA inhibition (1 µM) of 45%.
For ATCATATGCTAAGTGC (sugars k3 d10 k3, PS), the target mRNA inhibition (0.02 µM) was 0%, the target mRNA inhibition (0.078 µM) was 11% and the target mRNA inhibition (0.313 µM) was 48%. For the same sequence, the target mRNA inhibition (1 µM) was 73%, the target mRNA inhibition (1.25 µM) was 71% and the target mRNA inhibition (5 µM) was 82%.
ATCCCACAGAACCAAT (sugars k3 d10 k3, PS) was tested, and the target mRNA inhibition (1 µM) was 34%.
Work on ATCCCCTAAGTTATTA (sugars k3 d10 k3, PS) yielded a target mRNA inhibition (1 µM) of 13%.
ATCCTTGGTGCTGAGA (sugars k3 d10 k3, PS) gave a target mRNA inhibition (1 µM) of 13%.
ATCTAACTAACCTGAC (sugars k3 d10 k3, PS) showed a target mRNA inhibition (1 µM) of 0%.
ATCTATCATGCCTTCC (sugars k3 d10 k3, PS) was tested, and the target mRNA inhibition (1 µM) was 6%.
For ATCTCACAAGGGAAAT (sugars k3 d10 k3, PS), the target mRNA inhibition (1 µM) was 73%.
